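A five-concentration, 48-hour dose response in 96-well plates underlies each endpoint, interpolated linearly between surrounding concentrations. TGI marks complete inhibition of growth.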 Where a SMILES comes first, the peptide text is derived from it. The star is where a group is joined. Cbz = O=C(OCc1ccccc1)*
Experiments:
Assay in all cases: NCI-60 cell line screen, 48 h
EKVX NSCLC = test system: EKVX NSCLC
SK-MEL-5 melanoma = test system: SK-MEL-5 melanoma
OVCAR-3 ovarian = test system: OVCAR-3 ovarian
MDA-MB-435 = test system: MDA-MB-435
T-47D breast = test system: T-47D breast
PC-3 prostate = test system: PC-3 prostate
SNB-75 CNS = test system: SNB-75 CNS
HS 578T breast = test system: HS 578T breast
LOX IMVI melanoma = test system: LOX IMVI melanoma
HCT-116 colon = test system: HCT-116 colon

Row | SMILES | TGI (EKVX NSCLC) | TGI (SK-MEL-5 melanoma) | TGI (OVCAR-3 ovarian) | TGI (MDA-MB-435) | TGI (T-47D breast) | TGI (PC-3 prostate) | TGI (SNB-75 CNS) | TGI (HS 578T breast) | TGI (LOX IMVI melanoma) | TGI (HCT-116 colon)
1 | COC(=O)c1ccccc1/C=C1\Cc2ccc(C)c(C)c2C1=O | > 100 µM | > 100 µM | > 100 µM | > 100 µM | > 100 µM | > 100 µM | > 100 µM | > 100 µM | > 100 µM | > 100 µM
2 | CCOC1OC(=O)c2cc3ccc4c(c3c(-c3ccc5c(c3)OCO5)c21)OCO4 (stereo not given) | > 100 µM | 27 µM | 3.77 µM | > 28 µM | > 100 µM | > 100 µM | 15.5 µM | > 39.6 µM | > 100 µM | 18.6 µM
3 | C[C@H](CCC(=O)O)[C@H]1CC[C@H]2[C@@H]3CC[C@@H]4C[C@H](O)CC[C@]4(C)[C@H]3C[C@H](O)[C@]12C | > 100 µM | > 100 µM | 52.1 µM | > 100 µM | 91.2 µM | > 100 µM | > 100 µM | > 100 µM | > 100 µM | > 100 µM
4 | CC1CCC(=O)C(C(=O)CC2CC(=O)N(C)C(=O)C2)C1 (stereo not given) | > 100 µM | > 100 µM | > 100 µM | > 100 µM | > 100 µM | > 100 µM | > 100 µM | > 100 µM | > 100 µM | > 100 µM
5 | COc1ccc(-[n+]2nc(S(=O)(=O)O)c(/C=C/c3ccc(N(C)C)cc3)cc2C#N)cc1 | > 100 µM | > 100 µM | > 100 µM | > 100 µM | > 100 µM | > 100 µM | > 100 µM | > 100 µM | > 100 µM | > 100 µM
6 | CCC(C)OC(=O)/C(Br)=C1/OC(=O)c2ccccc2-c2ccccc21 (stereo not given) | > 100 µM | 56.2 µM | > 100 µM | > 100 µM | > 100 µM | > 100 µM | > 100 µM | > 100 µM | 68.2 µM | 36.6 µM
7 | CCCCCCOC(=O)/C=C/[C@]1(CO)C/C(=C/CC(C(C)C)C(C)C)C(=O)O1 | 13.4 µM | 20.3 µM | 29.8 µM | 15.1 µM | 37.5 µM | 24.4 µM | 27.7 µM | 22.1 µM | 24.6 µM | 25.9 µM
8 | CCOC(=O)NC(Nc1ccc(S(=O)(=O)Nc2nc(C)cc(C)n2)cc1)(C(=O)OCC)C(F)(F)F (stereo not given) | > 100 µM | > 100 µM | > 100 µM | > 100 µM | > 100 µM | > 100 µM | > 100 µM | > 100 µM | > 100 µM | > 100 µM
9 | CN=C(N=Nc1c(O)[nH]c2ccccc12)SCC(=O)c1ccc(Br)cc1 | > 62.8 µM | > 93.2 µM | 28.2 µM | > 42.3 µM | > 100 µM | 29.4 µM | 27.5 µM | > 40 µM | > 47.7 µM | 19.7 µM
10 | CCOC(=O)CC[C@H](NC(=O)[C@H](N)Cc1ccc(N(CCCl)CCCl)cc1)C(=O)OCC | > 67.9 µM | 23.5 µM | 30.2 µM | > 53.1 µM | 38.6 µM | > 75.1 µM | 35.3 µM | 52.7 µM | 41.6 µM | > 68 µM
11 | CC(CO)(CO)N1C(=O)C2C3C=CC(C3)C2C1=O (stereo not given) | > 100 µM | > 100 µM | > 100 µM | > 100 µM | > 100 µM | > 100 µM | > 100 µM | > 100 µM | > 100 µM | > 100 µM
12 | Nc1nc(N)c2c3c(cnc2n1)CC(c1ccccc1)CC3 (stereo not given) | > 100 µM | > 100 µM | > 100 µM | > 100 µM | 56.8 µM | > 100 µM | 35.9 µM | > 100 µM | 21.6 µM | 32.5 µM
13 | O=C(Oc1ccccn1)c1cc2cc(CCl)ccc2oc1=O | > 100 µM | > 100 µM | 38.1 µM | > 100 µM | > 100 µM | 38.5 µM | 62.1 µM | 59.6 µM | > 100 µM | 69.4 µM
14 | CC(=O)c1[nH]c(NCc2ccccc2)c(C(=S)Nc2ccccc2)c1N | > 100 µM | 34.9 µM | 97.9 µM | 33.9 µM | 63.3 µM | > 100 µM | > 100 µM | 58.9 µM | 32.8 µM | 34.1 µM
15 | O=[N+]([O-])/C(C(Cl)=C(Cl)Cl)=C(/Cl)Sc1ccccc1 | 33.4 µM | 4.47 µM | 3.61 µM | 3.29 µM | 7.47 µM | 4.66 µM | 28.8 µM | 7.14 µM | 3.65 µM | 2.58 µM
16 | Cc1cc2oc(=N)c(C#N)c(C)c2cc1C | > 100 µM | > 100 µM | > 100 µM | > 100 µM | > 100 µM | > 100 µM | 79.8 µM | > 100 µM | > 100 µM | > 100 µM
17 | O=C1CCCC1CN1CCCC1 (stereo not given) | 42.8 µM | 31.9 µM | 28.9 µM | 26.3 µM | 10.8 µM | 35.2 µM | 31 µM | 55.7 µM | 24.4 µM | 11.7 µM
18 | Cc1nn(-c2ccccc2)c2c1C(c1ccc(Cl)cc1)NC(=S)N2 (stereo not given) | 90.8 µM | 52.1 µM | > 100 µM | 47.4 µM | > 100 µM | 47.9 µM | > 100 µM | > 100 µM | 31.1 µM | > 100 µM
19 | O=Cc1[nH]c(=O)[nH]c(=O)c1C(=O)O | > 100 µM | > 100 µM | > 100 µM | > 100 µM | > 100 µM | > 100 µM | > 100 µM | > 100 µM | > 100 µM | > 100 µM
20 | COC(=O)C1=C(C(=O)NNc2ccccc2)N(c2cccnc2Cl)C(c2ccccc2)=CC1c1ccccc1 (stereo not given) | > 100 µM | > 100 µM | > 100 µM | > 100 µM | > 100 µM | > 100 µM | > 100 µM | > 100 µM | > 100 µM | > 100 µM
21 | CCCCCCc1cc2cc(C(=O)Nc3ccccc3)c(=N)oc2cc1O | > 100 µM | 8.41 µM | 5.1 µM | 14.1 µM | > 47.1 µM | > 30.3 µM | > 100 µM | 20 µM | 12.5 µM | 6.59 µM
22 | CN(C)CCCC12CCCCC1=Nc1ccccc12 (stereo not given) | > 100 µM | > 100 µM | > 100 µM | > 100 µM | > 100 µM | > 100 µM | > 100 µM | > 100 µM | > 100 µM | > 100 µM
23 | Cn1c(=O)c2c(nc(Cc3ccccc3)n2CC(=O)O)n(C)c1=O | > 100 µM | > 100 µM | > 100 µM | > 100 µM | > 100 µM | > 100 µM | > 100 µM | > 100 µM | > 100 µM | > 100 µM
24 | CN1CCN(C(=S)N2CCN(C)CC2)CC1 | > 100 µM | > 100 µM | > 100 µM | > 100 µM | > 100 µM | > 100 µM | > 26.3 µM | > 100 µM | > 100 µM | > 100 µM
25 | O=C(O)CCC(NC(=O)OCc1ccccc1)C(=O)NC(Cc1cnc[nH]1)C(=O)O (stereo not drawn) (Cbz-Glu-His-OH; configuration not given here) | > 100 µM | > 100 µM | > 100 µM | > 100 µM | > 100 µM | > 100 µM | > 100 µM | > 100 µM | > 100 µM | > 100 µM
26 | CC1OC(OC2C(O)COC(OC3C(C)OC(OC4C(OC(=O)[C@]56CCC(C)(C)C[C@@H]5C5=CCC7[C@@]8(C)C[C@H](O)[C@H](OC9OC(CO)C(O)C(O)C9O)[C@@](C)(CO)[C@@H]8CC[C@@]7(C)[C@]5(C)CC6)OCC(O)C4O)C(O)C3OC3OCC(O)(CO)C3O)C2O)C(O)C(O)C1O (stereo not given in full) | 15.8 µM | 29.8 µM | 40.8 µM | 47.3 µM | 51.1 µM | 28.6 µM | 39.6 µM | 35.8 µM | 43.2 µM | 30.6 µM
27 | COc1ccc(P2(=S)OC(C)(C)C(C)(C)O2)cc1 | > 100 µM | > 100 µM | > 100 µM | > 100 µM | > 100 µM | > 100 µM | > 100 µM | > 100 µM | > 100 µM | > 100 µM
28 | COC(=O)C(Cc1c[nH]c2ccccc12)NP(=O)(O)OCC1OC(n2cc(I)c(=O)[nH]c2=O)CC1O (stereo not given) | > 100 µM | > 100 µM | > 100 µM | > 100 µM | > 100 µM | > 100 µM | > 100 µM | > 100 µM | > 100 µM | > 100 µM
29 | O=C1/C(=C/c2ccccc2S)N=C(c2ccccc2)N1c1nc2c(Cl)cc(Cl)cc2s1 | 36 µM | 36 µM | 40.2 µM | 48.2 µM | > 100 µM | 51.6 µM | 64.8 µM | 75.8 µM | 50.4 µM | 36.5 µM

Source: PubChem BioAssay (NCI)
